For one compound, inhibition results are on record in article PMC6934184, “Selective DNA-PKcs inhibition extends the therapeutic index of localized radiotherapy and chemotherapy” (The Journal of Clinical Investigation, 2019).

The experiment addresses T1, STK39 (STLK3) (Homo sapiens, UniProt Q9UEW8).
T1 construct: purchased Thermo Fisher Scientific (Life Technologies) SelectScreen
Nature of the experiment: SelectScreen LanthaScreen. It is filed as binding. To be noted: read-out: % displacement. The method, boiled down: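 SelectScreen broad panel; activity (Z'LYTE, Adapta) plus binding formats. ATP: Km app for CSF1R Z'LYTE; 10 for CAMK1 Adapta. Readout = % per kinase.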
On the technique in general: Time-resolved FRET reads energy transfer from a long-lived donor to a nearby acceptor.

On to `CN(C(=O)CN1CCOCC1)c1ccc2sc3c(-c4cccc5c(=O)cc(N6CC7CCC(C6)O7)oc45)cccc3c2c1` [NU5455], for which the inhibition at 1 µM was found to be 16.2%.
